# In PMC12749748, “Chemically-induced degradation of the endoplasmic-reticulum stress sensor IRE1 by a VHL-recruiting chimera” (Nature Communications, 2025):
# Entries after “also recorded” stand apart in the source; their conditions may differ.
# Tests used:
# Type in all cases: cell-based
# [1] = molecular target: T1, PKD1 (Homo sapiens, UniProt Q15139); assay: Immunoblot of PKD1 degradation in KMS27 cells; conditions: N=3
# T1 construct: endogenous in cells; host or cells: KMS27
# Protocol: (§1) Cells were lysed in buffer containing 20 mM HEPES 7.2, 150 mM NaCl, and 1% Triton X-100, supplemented with fresh protease and phosphatase inhibitors (Invitrogen, #78440), cleared by centrifugation at 12,000 × g for 10 min, and analyzed by BCA protein assay (Thermo Fisher Scientific, #23227). Equal protein amounts were loaded, separated by SDS-PAGE, electrotransferred to nitrocellulose membranes using the iBLOT2 system (Invitrogen), and blocked in 5% nonfat milk solution for 60 min. Membranes were probed with primary antibodies at 1:1000 dilution in 5% milk at 4 °C overnight. Signal was detected using appropriate horseradish peroxidase (HRP)-conjugated secondary antibodies at 1:10,000 in 5% milk at room temperature for 1–2 h. Bands were visualized by the Azure 600 western blot imaging system (Azure Biosystems). For in vitro ubiquitination assays performed with Me-Ub, bands were visualized by the Odyssey CLx Imager (LI‑COR) after incubating the blots with the IRDye 800CW (LI-COR) secondary antibodies at 1:10,000 in Intercept Blocking Buffer (LI-COR) at room temperature for 1–2 h. […]
# (§2) The kinome selectivity of G6374 was assessed at 1 μM for 1 h versus a panel of 220 human kinases (SelectScreen Kinase Profiling Services, Thermo Fisher Scientific). […]
# [2] = molecular target: T2, IRE1 E621A, E836A (Homo sapiens, UniProt O75460+P40337, E621A/E836A); assay: NanoLuc signal IRE1 depletion, IRE1 E621A, E836A, HEK293T cells; conditions: E836A double mutant
# T2 construct: N2731; host or cells: HEK293T
# T2 sequence (O75460 19-977 E621A/E836A): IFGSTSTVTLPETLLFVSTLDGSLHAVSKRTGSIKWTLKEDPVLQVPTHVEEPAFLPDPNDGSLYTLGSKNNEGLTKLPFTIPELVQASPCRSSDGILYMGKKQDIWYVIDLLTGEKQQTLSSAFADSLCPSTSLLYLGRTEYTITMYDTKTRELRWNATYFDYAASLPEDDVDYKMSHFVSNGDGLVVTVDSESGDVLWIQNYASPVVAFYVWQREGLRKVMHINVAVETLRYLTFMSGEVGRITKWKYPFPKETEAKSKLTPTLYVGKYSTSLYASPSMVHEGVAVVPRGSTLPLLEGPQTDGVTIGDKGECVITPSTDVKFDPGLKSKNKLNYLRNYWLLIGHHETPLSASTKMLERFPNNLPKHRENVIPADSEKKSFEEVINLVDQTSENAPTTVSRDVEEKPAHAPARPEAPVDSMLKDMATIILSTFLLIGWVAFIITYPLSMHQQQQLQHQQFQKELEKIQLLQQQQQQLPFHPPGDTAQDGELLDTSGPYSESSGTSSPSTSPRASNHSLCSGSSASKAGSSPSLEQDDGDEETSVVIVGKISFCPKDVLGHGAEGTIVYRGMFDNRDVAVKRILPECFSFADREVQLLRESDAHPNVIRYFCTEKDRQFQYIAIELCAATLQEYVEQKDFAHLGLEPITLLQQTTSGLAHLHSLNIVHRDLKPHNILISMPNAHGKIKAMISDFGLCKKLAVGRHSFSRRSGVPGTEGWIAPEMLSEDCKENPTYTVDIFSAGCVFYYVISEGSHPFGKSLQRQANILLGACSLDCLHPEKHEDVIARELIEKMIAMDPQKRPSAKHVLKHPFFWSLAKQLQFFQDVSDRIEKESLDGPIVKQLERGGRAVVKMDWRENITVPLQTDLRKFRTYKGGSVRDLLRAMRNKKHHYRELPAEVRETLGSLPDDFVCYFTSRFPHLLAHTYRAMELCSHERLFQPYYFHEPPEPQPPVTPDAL
# T2 sequence (P40337 whole entry): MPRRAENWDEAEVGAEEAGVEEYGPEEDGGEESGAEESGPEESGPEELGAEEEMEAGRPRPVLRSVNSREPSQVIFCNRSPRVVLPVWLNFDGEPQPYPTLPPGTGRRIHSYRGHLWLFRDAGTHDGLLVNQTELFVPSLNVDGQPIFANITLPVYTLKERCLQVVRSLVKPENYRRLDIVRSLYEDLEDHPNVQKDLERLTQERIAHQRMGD
# T2 sequence (Q15369 whole entry partner): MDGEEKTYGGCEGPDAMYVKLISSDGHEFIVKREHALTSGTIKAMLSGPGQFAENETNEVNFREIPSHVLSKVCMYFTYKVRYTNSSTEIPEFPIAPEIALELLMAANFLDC
# T2 sequence (Q15370 whole entry partner): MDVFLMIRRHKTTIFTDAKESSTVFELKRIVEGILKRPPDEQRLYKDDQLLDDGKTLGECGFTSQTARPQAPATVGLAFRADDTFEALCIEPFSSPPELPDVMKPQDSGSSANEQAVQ
# T2 sequence (Q13617 whole entry partner): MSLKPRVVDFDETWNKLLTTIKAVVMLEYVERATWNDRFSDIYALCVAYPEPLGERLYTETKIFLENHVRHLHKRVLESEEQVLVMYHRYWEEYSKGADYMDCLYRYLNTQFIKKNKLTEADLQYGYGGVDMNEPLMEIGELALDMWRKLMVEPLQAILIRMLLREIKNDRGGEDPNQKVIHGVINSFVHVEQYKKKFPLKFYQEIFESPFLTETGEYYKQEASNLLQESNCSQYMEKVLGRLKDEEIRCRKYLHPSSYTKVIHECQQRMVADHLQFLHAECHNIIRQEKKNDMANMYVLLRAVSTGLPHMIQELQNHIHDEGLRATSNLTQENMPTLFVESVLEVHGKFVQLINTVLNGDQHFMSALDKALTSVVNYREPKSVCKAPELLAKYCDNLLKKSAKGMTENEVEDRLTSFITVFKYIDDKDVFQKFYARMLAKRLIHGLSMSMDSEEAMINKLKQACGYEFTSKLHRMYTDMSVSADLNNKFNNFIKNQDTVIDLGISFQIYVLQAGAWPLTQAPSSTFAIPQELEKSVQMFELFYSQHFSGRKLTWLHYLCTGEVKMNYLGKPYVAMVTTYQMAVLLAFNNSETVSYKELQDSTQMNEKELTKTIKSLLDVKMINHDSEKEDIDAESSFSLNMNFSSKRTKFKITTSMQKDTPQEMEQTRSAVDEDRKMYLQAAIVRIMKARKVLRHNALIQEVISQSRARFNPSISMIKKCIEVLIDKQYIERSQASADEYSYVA
# T2 sequence (P62877 whole entry partner): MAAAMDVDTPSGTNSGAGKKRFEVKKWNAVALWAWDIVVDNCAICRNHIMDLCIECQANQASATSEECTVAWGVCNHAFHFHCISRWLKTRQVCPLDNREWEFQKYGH
# Protocol: (§3) 8 × 10^5 293T cells per well were seeded in 6-well plates (Costar, #3516) and incubated at 37 °C, 5% CO2 for 6 h. A mixture of 0.2 µg ERN1 (IRE1)-NanoLuc Fusion Vector (Promega, NV1321), 2 µg HaloTag-VHL Fusion Vector (Promega, N2731), 6 µl FuGENE HD Transfection Reagent (Promega, E2311), and 100 µL Opti-MEM I reduced serum medium (Gibco, #31985062) per well was incubated at room temperature for 20 min before adding to cells. For expression of IRE1 mutants, site-directed mutagenesis was performed using the ERN1-NanoLuc Fusion Vector as the DNA template, and the transfection mixture was prepared in the same way as WT IRE1. After 18 h, cells from 6-well plates were trypsinized, resuspended in Opti-MEM I reduced serum medium, and reseeded into 96-well plates (Costar, #3917), with or without the addition of HaloTag NanoBRET 618 Ligand (Promega, G9801). After 18 h of incubation, a titration of G6374 (dilutions made in Opti-MEM I reduced serum medium) was added to the cells. After 2 h of G6374 treatment, NanoBRET Nano-Glo Substrate (Promega, N1571) was added to cells. The 96-well plates were imaged by GloMax Discover Microplate Reader (Promega, GM3000) with the default “BRET: NanoBRET 618” protocol (Donor: 450 BP; Acceptor: 600 LP; Integration: 0.3 s). Data analysis was performed according to the user manual.
# [3] = molecular target: IRE1 (Homo sapiens, UniProt O75460); assay: Immunoblot of endogenous IRE1 depletion in AMO1 cells; set-up: Immunoblot (IB) analysis of endogenous IRE1 depletion in AMO1 cells; endogenous in cells; host or cells: AMO1
# IRE1 (Homo sapiens, UniProt O75460), sequence (O75460 19-977): as the sequence (O75460 19-977 E621A/E836A) above, with A603E, A818E counted along it
# Protocol: Cells were lysed in buffer containing 20 mM HEPES 7.2, 150 mM NaCl, and 1% Triton X-100, supplemented with fresh protease and phosphatase inhibitors (Invitrogen, #78440), cleared by centrifugation at 12,000 × g for 10 min, and analyzed by BCA protein assay (Thermo Fisher Scientific, #23227). Equal protein amounts were loaded, separated by SDS-PAGE, electrotransferred to nitrocellulose membranes using the iBLOT2 system (Invitrogen), and blocked in 5% nonfat milk solution for 60 min. Membranes were probed with primary antibodies at 1:1000 dilution in 5% milk at 4 °C overnight. Signal was detected using appropriate horseradish peroxidase (HRP)-conjugated secondary antibodies at 1:10,000 in 5% milk at room temperature for 1–2 h. Bands were visualized by the Azure 600 western blot imaging system (Azure Biosystems). For in vitro ubiquitination assays performed with Me-Ub, bands were visualized by the Odyssey CLx Imager (LI‑COR) after incubating the blots with the IRDye 800CW (LI-COR) secondary antibodies at 1:10,000 in Intercept Blocking Buffer (LI-COR) at room temperature for 1–2 h.
# [4] = molecular target: T3, IRE1 (Homo sapiens, UniProt O75460+P40337); assay: NanoLuc signal IRE1 depletion, WT IRE1-NanoLuc, HEK293T cells
# T3 construct: N2731 (HaloTag-VHL); host or cells: HEK293T
# Protocol: as §3
# [5] = molecular target: T4, TAO2 (Homo sapiens, UniProt Q9UL54); assay: Immunoblot of TAO2 depletion; conditions: AMO1 and KMS27 cells, 4 h
# T4 construct: endogenous in cells; host or cells: AMO1, KMS27
# Protocol: as §1, §2
# [6] = molecular target: T5, IRE1 E621A, E836A:VHL (Homo sapiens, UniProt O75460+P40337, E621A/E836A); assay: NanoBRET IRE1:VHL interaction, IRE1 E621A, E836A, HEK293T cells
# T5 construct: N2731; host or cells: HEK293T
# Protocol: as §3
# [7] = AMO1 cells, 17 h, immunoblot quantification, n = 4, mean ± SEM
# T1 sequence (Q15139 whole entry): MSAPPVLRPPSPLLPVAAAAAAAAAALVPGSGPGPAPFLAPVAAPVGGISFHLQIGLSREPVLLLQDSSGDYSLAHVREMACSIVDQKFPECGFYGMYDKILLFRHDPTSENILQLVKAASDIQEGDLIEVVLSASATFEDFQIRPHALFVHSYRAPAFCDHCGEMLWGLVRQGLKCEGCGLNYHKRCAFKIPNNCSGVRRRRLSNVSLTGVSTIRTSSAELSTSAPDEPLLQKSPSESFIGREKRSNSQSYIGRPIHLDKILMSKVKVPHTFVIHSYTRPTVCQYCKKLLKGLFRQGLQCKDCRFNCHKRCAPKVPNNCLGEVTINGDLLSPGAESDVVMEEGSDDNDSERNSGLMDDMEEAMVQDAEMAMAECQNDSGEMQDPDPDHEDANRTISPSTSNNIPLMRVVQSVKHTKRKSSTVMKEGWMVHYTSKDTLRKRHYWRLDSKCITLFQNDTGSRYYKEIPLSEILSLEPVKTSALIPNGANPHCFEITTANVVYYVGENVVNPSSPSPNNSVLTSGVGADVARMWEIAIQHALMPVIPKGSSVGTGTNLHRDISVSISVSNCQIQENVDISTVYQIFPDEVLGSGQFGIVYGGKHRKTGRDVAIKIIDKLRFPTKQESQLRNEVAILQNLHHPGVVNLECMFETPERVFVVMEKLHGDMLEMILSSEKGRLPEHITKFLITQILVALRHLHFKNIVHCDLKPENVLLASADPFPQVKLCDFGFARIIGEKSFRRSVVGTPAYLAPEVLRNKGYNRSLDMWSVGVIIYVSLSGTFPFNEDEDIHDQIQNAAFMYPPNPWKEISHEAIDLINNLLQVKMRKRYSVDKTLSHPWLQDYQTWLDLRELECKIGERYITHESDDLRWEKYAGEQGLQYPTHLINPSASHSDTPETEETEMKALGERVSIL
smiles,measurement,setting,value
Cc1ncsc1-c1ccc(CNC(=O)[C@@H]2C[C@@H](O)CN2C(=O)[C@@H](NC(=O)CCCCN2CCN([C@H]3CC[C@H](Nc4ncc5ccc(=O)n(C(C)C)c5n4)CC3)CC2)C(C)(C)C)cc1 [G6374],degradation of PKD1,[1],no
same,DC50,[2],110 ± 30 nM
same,Dmax,[2]; HEK-293T,67%
same,IRE1 depletion under ER stress (thapsigargin or tunicamycin),"[3]; AMO1 and KMS27 cells, G6374 3 µM, 2 hr, Tg 100 nM or Tm 5 µg/ml, 6 hr",did not encumber G6374-driven IRE1 depletion
same,IRE1 depletion over a time course,"[3]; AMO1 cells, 1 µM, 0-8 h",reaches near maximum levels by 4 hr; also recorded: near complete IRE1 depletion by 4 h
same,DC50,[3]; [7],40 nM
same,Dmax,[3]; [7],93%
same,Dmax,"[4]; HEK-293T, 2 h, n = 3, mean ± SEM",78%
same,DC50,[4]; estimated,130 nM
same,depletion of TAO2,[5],did not deplete TAO2
same,EC50,[6],50 ± 20 nM
